Laboratory results reported in article PMC5577515, “Peptide‐Directed Binding for the Discovery of Modulators of α‐Helix‐Mediated Protein–Protein Interactions: Proof‐of‐Concept Studies with the Apoptosis Regulator Mcl‐1” (Angewandte Chemie (International Ed. in English), 2017).
Where two headings read alike, the source gives them in different places.

Columns and labels:
[1] = test system: BxPC-3 cells; assay: Annexin-V-FLUOS staining, phosphatidylserine externalization; assay type: cell-based; conditions: 4 h, fluorescence microscopy
Description: Figure 2 Representative small molecules induce hallmarks of apoptosis. A) Increase of caspase‐3 activation in BxPC‐3 cells 4 h after treatment. B) Externalization of phosphatidylserine, a hallmark of apoptosis, was evaluated by exposing BxPC‐3 cells to compounds 18 (25 μM), 20 (5 μM), 21 (5 μM), and 23 (25 μM) for 4 h followed by annexin‐V‐FLUOS. Images were taken at 10× magnification with a GFP filter (top) and white light (bottom). […]
(§1) CUSTOM_[…] ("<1>=[N+]",("charge", 0, 2)) […]
(§2) CUSTOM_[…] ("<1>=[N]=[N]",("bond",1,(2,3))) […]
(§3) CUSTOM_[…] ("<1>([C]=[C])=[N][N]",("bond",1,(3,5))) […]
(§4) The MiaPaCa-2 cell line, BxPC-3 cell line and AsPC-1 cell line were purchased from the European Collection of Cell Cultures (ECACC, Porton Down, UK). MiaPaCa-2 cells were cultured in DMEM media with 2 mM L-glutamine, 100 U/mL penicillin, 100 µg/mL streptomycin and 10% FCS.
BxPC-3 cells and AsPC-1 cells were cultured in RPMI-1640 media containing 2 mM L-glutamine, 100 U/mL penicillin, 100 µg/mL streptomycin and 10% FCS. Cells were sub-cultured twice weekly and maintained at 37 °C and 5% CO2. […]
An Annexin-V-FLUOS/Propidium iodide staining kit (Roche Applied Science) was used to detect phosphatidylserine externalization in pancreatic cancer cell line BxPC-3. Cells, seeded in clear 96- […]
and treated with staining kit according to the manufacturer’s protocol. Fluorescence microscopy […]
was used to examine cells and pictures taken with an inverted Leica DMII fluorescence microscope […]
Caspase 3 activation assay […]

[2] = test system: MiaPaCa-2 cells; assay: MTS cytotoxicity assay, MiaPaCa-2; assay type: cell-based; conditions: 72 h, 37 °C, triplicate, at least three experiments, errors = transformed greater extreme of standard error, SEM, read-out: MiaPaCa-2 cell growth inhibition IC50
Description: as §1, §2, §3, §4
(§5) BxPC-3 cells and AsPC-1 cells were cultured in RPMI-1640 media containing 2 mM L-glutamine, 100 U/mL penicillin, 100 µg/mL streptomycin and 10% FCS. Cells were sub-cultured twice weekly and maintained at 37 °C and 5% CO2.
(§6) The anti-proliferative activity of the compounds studied was assessed by MTS assay (Promega) following the manufacturer’s instructions. Cells were seeded at 5 x 103 / 100 μL in a 96-well plate and left untreated or treated with DMSO (vehicle control), or compounds 1-4 (100 μM – […], in well concentration) in triplicate for 72 h at 37 °C with 5% CO2. Following this, MTS assay reagent was added to each well and the plates incubated for 4 h at 37 °C with 5% CO2. The absorbance was measured at 492 nm using the BMG Labtech POLARstarOPTIMA microplate reader. […]

[3] = molecular target: T1, Bcl-2 (Homo sapiens, UniProt P10415, DEL35-91/INS34DVEENRTEAPEGTESE); assay: Competitive FA assay, FITC-Bid displacement from Bcl-2; assay type: binding; conditions: 5 nM FITC-Bid, 30 nM Bcl-2; up to 100 µM compound
T1 construct: The Bcl-2 protein used in our study has the same construction as that used in the work of Fesik; purchased Dundee Cell Product Ltd
Description: For binding each well contained 10 µL of Bcl -2 protein in 10-fold dilutions (0.90 pM to 9.0 µM) […]
(§7) were dissolved in PBS: 0.05% Tween -20 buffer at pH 7.4. Reagents were incubated for 30 min at room temperature prior to reading. Bubbles were removed and 8 data points were generated.
Figure S 3: Fluorescence Anisotropy direct titration. […] Normalized […]
(§8) (1 picture or pasted object on this page, not shown here)

[4] = test system: BxPC-3 cells; assay: MTS cytotoxicity assay, BxPC-3; assay type: cell-based; conditions: 72 h, 37 °C, triplicate, at least three experiments, errors = transformed greater extreme of standard error, SEM, read-out: BxPC-3 cell growth inhibition IC50
Description: as §1, §2, §3, §4, §5, §6

[5] = test system: AsPC-1 cells; assay: MTS cytotoxicity assay, AsPC-1; assay type: cell-based; conditions: for IC50: 72 h, 37 °C, triplicate, at least three experiments, errors = transformed greater extreme of standard error, read-out: AsPC-1 cell growth inhibition IC50; for activity against AsPC-1 cells: at the concentrations evaluated (up to 100 μM), result in words
Description: as §1, §2, §3, §4, §5, §6

[6] = molecular target: T2, Mcl-1 (UniProt P97287+Q07820); assay: Competitive fluorescence anisotropy (FA) assay, FITC-NoxaB displacement from Mcl-1; assay type: binding; conditions: Table 2; inhibition of binding of 5 nM FITC-NoxaB to 10 nM Mcl-1; PBS, 0.05% Tween-20, pH 7.4; non-linear regression of at least three experiments; errors = transformed greater extreme of standard error; SEM; read-out: FA IC50
T2 construct: amino acid residues 152-189 of mouse Mcl-1 fused with amino acid residues 209-327 of; 8 x His (N); TEV site (N); made in house; host or cells: E. coli BL21(DE3)pLysS
Description: Fmoc, 9-fluorenylmethylcarbony. IC50 determined by non -linear regression of at least three experiments.
4. Fluorescence Anisotropy Binding Assay
Fluorescence anisotropy was carried out on a BMG Labtech clariostar microplate reader with a fluorescence anisotropy optic measuring at 482/530 nm. Low -binding, Corning 96 -well black plates were used and all reagents used in the assay were biological grade and purchased from Sigma Aldrich and Novabioche m. All solutions were made using MilliQ water .
Anisotropy values were automatically calculated using the following formula […]
Where r = anisotropy, l a = parallel emission light, lb = perpendicular emission light and I = total […]
KD was determined using GraphPad Prism Version 6.0 software, using the One Site – Total binding […]
Where Bmax is the maximum specific binding, KD is the equilibrium binding constant, and NS is the slope of nonspecific binding. […]
IC50 was determined using GraphPad Prism Version 6.0 software, using a four-parameter logistic model, according to precedent from Ottmann and co-workers.[5] Errors are the transformed greater extreme of the standard error. […]
For binding each well contained 10 µL of Mcl -1 protein in 10-fold dilutions (0.37 pM to 3.7 µM) […]
protein were dissolved in PBS: 0.05% Tween -20 buffer at pH 7.4. Reagents were incubated for 30 min at room temperature prior to reading. Bubbles were removed and 8 data points were generated.
Figure S 1: Fluorescence Anisotropy direct titration.
To confirm reproducibility of
(µ) and standard deviations (σ) were inputted into the following equation:
Inhibition screens were carried out using 10 nM Mcl -1, 5 nM fluorescently-tagged peptide and 100 µM of inhibitor. Compounds were dissolved in DMSO. […]
control (DMSO) were used to define the mini mum and maximum values and ensure the assay was […]
(1 picture or pasted object on this page, not shown here) […]
Bubbles were removed and 8 data points were generated. […]

[7] = molecular target: T3, Bcl-xL (Homo sapiens, UniProt Q07817, DEL45-84); assay: Competitive FA assay, FITC-Bid displacement from Bcl-xL; assay type: binding; conditions: 5 nM FITC-Bid, up to 100 µM compound
T3 construct: The Bcl-xL protein used in our study is a truncated construction of the full-length protein, with; purchased Dundee Cell Product Ltd
Description: as §7, §8
Inhibition screens were carried out using […]

T2 sequence (P97287 152-189 limits assumed): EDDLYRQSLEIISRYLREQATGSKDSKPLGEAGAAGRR
T2 sequence (Q07820 209-327 limits assumed): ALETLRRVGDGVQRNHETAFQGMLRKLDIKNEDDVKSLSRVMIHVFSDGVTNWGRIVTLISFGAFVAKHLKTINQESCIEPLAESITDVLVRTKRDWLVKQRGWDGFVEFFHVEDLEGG
T1 sequence (P10415 with tags, fused parts or gaps INS34DVEEN/V35R/G36T/A37E/P40E/DEL42-87/P88T/V89E/P90S/P91E): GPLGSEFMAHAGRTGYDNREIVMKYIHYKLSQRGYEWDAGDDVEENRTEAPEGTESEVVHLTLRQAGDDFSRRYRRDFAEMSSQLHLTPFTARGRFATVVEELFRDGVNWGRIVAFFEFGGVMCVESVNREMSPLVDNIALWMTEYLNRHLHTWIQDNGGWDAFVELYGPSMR
T3 sequence (Q07817 with tags, fused parts or gaps DEL45-84): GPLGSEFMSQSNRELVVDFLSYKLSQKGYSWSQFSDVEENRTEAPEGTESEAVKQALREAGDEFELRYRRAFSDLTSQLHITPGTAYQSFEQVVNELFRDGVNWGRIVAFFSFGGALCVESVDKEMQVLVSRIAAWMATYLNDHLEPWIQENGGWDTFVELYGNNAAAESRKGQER

Row | binding to Bcl-2 in FA assay [3] | IC50 [6] | binding to Bcl-xL in FA assay [7] | Structure (SMILES) | externalization of phosphatidylserine (annexin-V-FLUOS binding) ([1]; 25 μM) | IC50 [2] | IC50 [4] | IC50 [5] | activity against AsPC-1 cells [5] | externalization of phosphatidylserine (annexin-V-FLUOS binding) ([1]; 5 μM) | IC50 ([5]; SEM)
1 | no appreciable binding | 0.186 ± 0.02 µM | no appreciable binding | COC(=O)C(Cc1cn(C23CC4CC(CC(C4)C2)C3)nn1)NC(=O)OCC1c2ccccc2-c2ccccc21 (centres unmarked) [Compound 18] | induce the externalization of phosphatidylserine | 15.2 ± 0.75 µM | 29.8 ± 4.15 µM | > 100 µM | ineffective |  | 
2 |  | 0.249 ± 0.051 µM |  | COC(=O)C(Cc1cn(Cc2ccc(C#N)cc2)nn1)NC(=O)OCC1c2ccccc2-c2ccccc21 (centres unmarked) [Compound 20] |  | 6.57 ± 3.92 µM | 5.98 ± 1.14 µM |  |  | induce the externalization of phosphatidylserine | 2.04 ± 0.62 µM
3 | no appreciable binding | 1.26 ± 0.142 µM | no appreciable binding | COC(=O)C(Cc1cn(Cc2ccc(Cl)cc2)nn1)NC(=O)OCC1c2ccccc2-c2ccccc21 (centres unmarked) [Compound 21] |  | 1.85 ± 3.17 µM | 2.81 ± 0.4 µM | > 100 µM | ineffective | induce the externalization of phosphatidylserine | 
4 |  | 1.7 ± 0.23 µM |  | COC(=O)[C@H](Cc1cn(Cc2ccccc2F)nn1)NC(=O)OCC1c2ccccc2-c2ccccc21 [Compound 23, methyl (S)-2-((((9H-fluoren-9-yl)methoxy)carbonyl)amino)-3-(1-(2-fluorobenzyl)-1H-1,2,3-triazol-4-yl)propanoate] | induce the externalization of phosphatidylserine | 19.5 ± 1.35 µM | 25.2 ± 2.66 µM |  |  |  | 10.5 ± 1.53 µM
